# T1: His-HT1 (recombinant Arabidopsis HT1 protein kinase, wild type, with His tag)
# T1 chain: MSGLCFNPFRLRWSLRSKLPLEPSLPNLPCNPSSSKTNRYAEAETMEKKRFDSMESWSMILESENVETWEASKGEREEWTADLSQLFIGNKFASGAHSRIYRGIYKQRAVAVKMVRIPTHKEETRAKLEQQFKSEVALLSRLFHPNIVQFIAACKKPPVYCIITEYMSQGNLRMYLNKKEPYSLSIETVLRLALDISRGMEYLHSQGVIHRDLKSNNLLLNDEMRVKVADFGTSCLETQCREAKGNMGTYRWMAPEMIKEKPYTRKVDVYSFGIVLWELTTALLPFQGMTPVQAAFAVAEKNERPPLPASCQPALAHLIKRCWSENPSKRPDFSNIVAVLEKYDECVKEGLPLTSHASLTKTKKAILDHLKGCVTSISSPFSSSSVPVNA
# T2: HT1-R102K (Arabidopsis, UniProt Q2MHE4 1-390)
# T2 construct: Recombinant HT1 isoform; No tag is stated for the variant
# T2 sequence: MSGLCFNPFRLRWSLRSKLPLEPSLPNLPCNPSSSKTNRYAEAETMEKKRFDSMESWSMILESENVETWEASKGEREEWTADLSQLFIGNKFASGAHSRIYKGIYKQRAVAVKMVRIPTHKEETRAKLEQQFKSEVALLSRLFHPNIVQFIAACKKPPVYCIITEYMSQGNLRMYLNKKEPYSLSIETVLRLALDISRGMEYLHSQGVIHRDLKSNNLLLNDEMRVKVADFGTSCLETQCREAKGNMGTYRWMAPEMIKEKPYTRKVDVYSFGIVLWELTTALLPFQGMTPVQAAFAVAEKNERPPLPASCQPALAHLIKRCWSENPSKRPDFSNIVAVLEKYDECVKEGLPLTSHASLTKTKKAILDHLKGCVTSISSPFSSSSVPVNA
# T3: HT1-G89R (Arabidopsis, UniProt Q2MHE4 1-390)
# T3 construct: Recombinant HT1 isoform; No tag is stated for the variant; the wild type in the same pull-down was His-HT1; also called ht1-G89R isoform
# T3 sequence: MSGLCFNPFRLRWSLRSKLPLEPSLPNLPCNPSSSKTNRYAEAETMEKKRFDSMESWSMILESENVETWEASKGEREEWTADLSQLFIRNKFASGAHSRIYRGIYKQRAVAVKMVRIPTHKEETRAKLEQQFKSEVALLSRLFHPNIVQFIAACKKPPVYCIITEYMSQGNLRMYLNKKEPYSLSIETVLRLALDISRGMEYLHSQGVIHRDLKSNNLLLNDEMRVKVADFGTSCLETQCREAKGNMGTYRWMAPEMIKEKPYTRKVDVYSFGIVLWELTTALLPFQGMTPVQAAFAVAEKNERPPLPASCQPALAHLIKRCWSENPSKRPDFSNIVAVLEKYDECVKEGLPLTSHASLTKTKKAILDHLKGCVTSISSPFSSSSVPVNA
# T4: HT1-A109V (Arabidopsis, UniProt Q2MHE4 1-390)
# T4 construct: Recombinant HT1 isoform; No tag is stated for the variant; also called ht1-A109V isoform
# T4 sequence: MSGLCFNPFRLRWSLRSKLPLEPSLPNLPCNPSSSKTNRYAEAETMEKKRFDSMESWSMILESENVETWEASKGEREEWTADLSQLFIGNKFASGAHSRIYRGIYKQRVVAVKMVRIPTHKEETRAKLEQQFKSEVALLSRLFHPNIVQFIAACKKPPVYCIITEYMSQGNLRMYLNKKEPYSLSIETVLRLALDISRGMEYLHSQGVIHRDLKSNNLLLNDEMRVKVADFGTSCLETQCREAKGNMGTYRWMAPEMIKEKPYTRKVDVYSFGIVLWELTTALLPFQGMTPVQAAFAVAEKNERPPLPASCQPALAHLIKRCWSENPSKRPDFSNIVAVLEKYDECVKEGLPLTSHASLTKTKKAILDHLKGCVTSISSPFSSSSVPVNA
# Experiments:
# [1] = molecular target: T5, MPK4/12, HT1 and CBC1 recombinant proteins (Arabidopsis thaliana, UniProt Q2MHE4); assay: in vitro phosphorylation assay: NaHCO3-dependent down-regulation of HT1-mediated CBC1 phosphorylation; assay type: biochemical; details: HT1 and CBC1 only, no MPK4/MPK12; 20 mM NaHCO3, 30 min
# T5 construct: His; made in house
# [2] = molecular target: T6, MPK4/12, HT1 and CBC1 recombinant proteins (Arabidopsis thaliana, UniProt Q2MHE4+Q39024); assay: as above; assay type: biochemical
# T6 construct: His; made in house
# [3] = system: MPK4/12, HT1 and CBC1 recombinant proteins; assay: as above; assay type: biochemical, Arabidopsis
# [4] = system: S-type anion channels; details: proposed secondary HCO3- response mechanism (ref. 10); cited from earlier work
# [5] = molecular target: T7, MPK4 and HT1 (Arabidopsis thaliana, UniProt Q2MHE4+Q39024); assay: in vitro pull-down assay, His-HT1 with GST-MPK4; assay type: binding; details: 20 mM NaHCO3 in all buffers
# T7 construct: made in house
# Protocol: (§1) We therefore investigated a possible binding between MPK4 and HT1 and the effect of HCO3^−.
# (§2) FIG. 4. […] CO2 concentration changes were applied as indicated on top (p.p.m.). n=6 experiments, error bars show ±SEM. • (J) Model of plant stomatal CO2 sensor and signaling (see text).
# (§3) FIG. 6. […] Precipitated proteins were washed with buffers supplemented with NaHCO3 at the indicated concentrations (0, 2 or 20 mM). See FIG. 4d for an independent experiment. To control for effects of Na^+, 20 mM NaCl (0 mM NaHCO3) for lanes 1 and 4 were included in the buffers; and 18 mM NaCl (2 mM NaHCO3) for lane 3 were included in buffer.
# [6] = molecular target: MPK4/12
# [7] = system: MPK4 and HT1; assay: in vitro pull-down assay, His-HT1 with GST-MPK4; assay type: binding, Arabidopsis; details: pull-down with or without 20 mM NaHCO3
# Protocol: as §1, §2, §3
# [8] = molecular target: T1, His-HT1 (recombinant Arabidopsis HT1 …)
# [9] = molecular target: T2, HT1-R102K; assay: in vitro pull-down with or without NaHCO3 (FIG. 4F, n=3)
# [10] = molecular target: T3, HT1-G89R; assay: in vitro pull-down with or without NaHCO3 (FIG. 4E, n=3)
# Protocol: FIG. 4E illustrates gel protein separation images showing data where in vitro pull-down assays were performed using recombinant HT1 (wild type, HT1-G89R and HT1-R173Q) proteins;
# FIG. 4. Bicarbonate inactivates HT1 kinase by stabilizing HT1 interaction with MPK4/12. [0265] (A) Recombinant CBC1, HT1 and MPK4 proteins are incubated with or without 20 mM NaHCO₃ for 30 min, and in vitro phosphorylation assays were performed. [0266] (B) CBC1 and HT1 proteins were incubated with or without 20 mM NaHCO₃ or 20 mM NaCl (“−” controls) in the presence or absence of MPK12 protein. [0267] (C) His-HT1 and GST-MPK4 or GST control proteins were used for in vitro pull-down assays with or without 20 mM NaHCO₃. NaHCO₃ or 20 mM NaCl (“−” controls) were supplemented in all buffers throughout the pull-down assay procedures including the washing step. [0268] […] [0269] (E) In vitro pull-down assays were performed using recombinant HT1 (wild type, HT1-G89R and HT1-R173Q) proteins. [0270] (F) In vitro pull-down assays were performed using HT1-R102K isoform. [0271] (G) In vitro pull-down assays were performed using HT1-A109V isoform. [0272] […] [0273] (I) Stomatal conductances were analyzed in leaves of intact Arabidopsis plants [Col-0 (WT), mpk 12, pGC1:MPK12-GFP/mpk12 and pGC1:MPK12 (K70R)-GFP/mpk12]. CO₂ concentration changes were applied as indicated on top (p.p.m.). n=6 experiments, error bars show ±SEM. [0274] […]
# [11] = molecular target: T4, HT1-A109V; assay: in vitro pull-down with or without NaHCO3 (FIG. 4G, n=3)
molecule,measurement,setting,value
O=C(O)O [NaHCO3],effect of NaHCO3 on CBC1 phosphorylation level,[1],no clear effect
same,EC50,[2],~7.1 mM
same,effect of NaHCO3 on CBC1 phosphorylation at different pH,"[2]; MPK4 and HT1 present, high pH conditions at ≥pH 7.5 (buffers pH 6.5 to 8.5)",inhibited CBC1 phosphorylation
same,effect of NaHCO3 on CBC1 and histone phosphorylation,"[3]; MPK4 or MPK12 added to HT1 and CBC1, 20 mM NaHCO3, 30 min",inhibited both CBC1 phosphorylation and histone phosphorylation
same,"kinase activities of CBC1, HT1 or MPK4 exposed to NaHCO3 individually","[3]; each kinase alone, 20 mM NaHCO3, 30 min",not affected
same,CBC1 activity in response to NaHCO3,"[3]; only MPK12 and CBC1 in the reaction, no HT1, 20 mM NaHCO3",not affected
same,HT1 kinase activity in response to NaHCO3,"[3]; only in the presence of MPK12, 20 mM NaHCO3",inhibited
same,modulation of activity of S-type anion channels by HCO3-,[4],~20%
same,effect of HCO3- on binding between MPK4 and HT1,[5],greatly enhanced the binding
HT1-A109V (protein) MSGLCFNPFRLRWSLRSKLPLEPSLPNLPCNPSSSKTNRYAEAETMEKKRFDSMESWSMILESENVETWEASKGEREEWTADLSQLFIGNKFASGAHSRIYRGIYKQRVVAVKMVRIPTHKEETRAKLEQQFKSEVALLSRLFHPNIVQFIAACKKPPVYCIITEYMSQGNLRMYLNKKEPYSLSIETVLRLALDISRGMEYLHSQGVIHRDLKSNNLLLNDEMRVKVADFGTSCLETQCREAKGNMGTYRWMAPEMIKEKPYTRKVDVYSFGIVLWELTTALLPFQGMTPVQAAFAVAEKNERPPLPASCQPALAHLIKRCWSENPSKRPDFSNIVAVLEKYDECVKEGLPLTSHASLTKTKKAILDHLKGCVTSISSPFSSSSVPVNA,NaHCO3-mediated down-regulation of CBC1 phosphorylation/activity with the protein isoform in the reaction,"[3]; isoform replaces wild type protein or is added, 20 mM NaHCO3 vs NaCl control, 30 min",disrupt the NaHCO3-triggered down-regulation of CBC1 phosphorylation and CBC1 activity
same,"NaHCO3-triggered down-regulation of CBC1 phosphorylation and CBC1 activity, in vitro phosphorylation assay with MPK4/12 and CBC1 (FIG. 3E, n=4)",[6],both of these R102K and A109V mutations disrupt the NaHCO3-triggered down-regulation of CBC1 phosphorylation and CBC1 activity
same,HCO3- dependent binding of HT1 isoform with MPK4,[7],did not show a bicarbonate-induced interaction of HT1 with MPK4
"GST-MPK4 (recombinant Arabidopsis MAP kinase MPK4 with GST tag) (enzyme, The tag is placed at the N-terminus only because of the printed name GST-MPK4; The phosphorylation assays say only 'MPK4' and name no tag; also called AtMPK4; AT4G01370; not shown: GST tag) MSAESCFGSSGDQSSSKGVATHGGSYVQYNVYGNLFEVSRKYVPPLRPIGRGAYGIVCAATNSETGEEVAIKKIGNAFDNIIDAKRTLREIKLLKHMDHENVIAVKDIIKPPQRENFNDVYIVYELMDTDLHQIIRSNQPLTDDHCRFFLYQLLRGLKYVHSANVLHRDLKPSNLLLNANCDLKLGDFGLARTKSETDFMTEYVVTRWYRAPELLLNCSEYTAAIDIWSVGCILGETMTREPLFPGKDYVHQLRLITELIGSPDDSSLGFLRSDNARRYVRQLPQYPRQNFAARFPNMSAGAVDLLEKMLVFDPSRRITVDEALCHPYLAPLHDINEEPVCVRPFNFDFEQPTLTEENIKELIYRETVKFNPQDSV","CBC1 and histone phosphorylation in vitro (HT1 + CBC1 + MPK4, 20 mM NaHCO3; FIG. 2A, n>6)",[8],"when MPK4 or MPK12 were added to the reaction, we found that the addition of NaHCO3, but not NaCl, inhibited both CBC1 phosphorylation and histone phosphorylation in vitro"
same,binding result,[9],no binding
same,binding result,[10],no binding
same,binding result,[11],no binding

# From patent publication US20260078398A1, “PLANTS GENETICALLY ENGINEERED FOR INCREASED WATER USE EFFICIENCY AND CARBON INTAKE AND METHODS FOR MAKING AND USING THEM” (The Regents of the University of California, priority 2022, published 2026)
